Test results taken from patent US20080096903A1, “SULFAMOYL-CONTAINING DERIVATIVES AND USES THEREOF” (Wyeth, priority 2006, published 2008).
Like-named read-outs stand apart in the source and are kept apart here.

Key:
Human cancer cell lines = test: Cancer-Derived Cell Line Growth Inhibition Assays; type: cell-based; settings: 72 h, 3 days, Cell Titer Blue
Procedure: Cancer-Derived Cell Line Growth Inhibition Assays
Human cancer cell lines were obtained from ATCC (Rockville, Md.) and maintained according to their media specifications at 37° C. in humidified incubators with or without 5% CO2. Cells were plated at 0.1 ml/well of 50,000 cells per ml in 96 well plates. Monolayer grown cells were incubated overnight prior to the addition of compound while cells grown in suspension are given compound on the same day as plating. The test agent is titrated in duplicate for each compound and concentration tested. Cells are incubated in the presence of compound at 37° C. in humidified incubators for 3 days prior to addition of 20 ul of Cell Titer Blue (Promega, Madison, Wis.) which quantifies total cellular metabolic activity by conversion of resazurin to resorufin. Cell titer blue measures metabolic activity by quantifying the amount of biological activity present in a well using reduction of the dye resazurin as an end-point metric. Cells then are allowed to incubate at 37° C. for 2 hours and then analyzed using a Bio-TEK (Winooski, Vt.) Synergy HT 96/384 well plate reader set for 530 nm/590 nm, Ex/Em. Data analysis and depiction is conducted using EXCEL.

Hsp90α Protein = Hsp90α Protein (Homo sapiens, UniProt P07900); test: Hsp90 CE Competitive Binding Assay (displacement of fluorescein-labelled geldanamycin)
Procedure: Hsp90 CE Competitive Binding Assay: […]
b) “Competitor”, fluorescein-labelled geldanamycin • The competitor was synthesized as described by Llauger-Bufi et al, Bioorg.
The electrophoresis running buffer (RB) is comprised of 200 mM CAPSO, pH 9.2 (pH-adjusted with Trizma base). The sample buffer (SB) is comprised of 10 mM Trizma base, pH 8.0 (pH-adjusted with glacial acetic acid), 5 mM MgCl2, 5 mM DTT, and BSA and Triton as noted.
Capillary electrophoresis was performed on Cetek Gemini Systems™ using laser-induced fluorescence detection. Fused-silica capillaries (50 μm I.D.×30 cm, approximately 10 cm length from end to detection window) were internally coated using Cetek's proprietary methods.
Each sample (i.e., fermentation extract, partially-purified fraction, or compound mixture, or pure compound) to be assayed is prediluted 1:20 or 1:40 in SB containing 0.02% Triton. 1 μl of each prediluted sample is then deposited into a 96-well microtiter plate and mixed with 8 μl of Target Cocktail. These samples can be stored at 4° C. until ready for assay.
When ready for analysis, the plates are transferred to the deck of a Gemini System. To each mixture of sample and target, 1 μl of Competitor Cocktail is added and mixed thoroughly. This reaction mixture is allowed to incubate for 8 minutes on the refrigerated deck of the Gemini System (temperature 8° C.). During incubation, the CE capillary is rinsed for 30 seconds with RB containing 2 mg/ml BSA, and then 60 seconds with RB. At the end of incubation, a small plug of the reaction mixture is then injected into the capillary at low pressure (0.5 psi) for 7 seconds. The loaded capillary is then dipped into reservoirs containing RB and the sample is electrophoresed at 10 kV for 6 minutes at a temperature of 8° C.
The electrophoretic separation produces a graphical profile known as an “electropherogram,” which contains a peak representing the intact complex between Hsp90 and competitor, and a smaller series (typically, a triplet) of peaks representing unbound competitor. […] Dose-response experiments, which evaluate the degree of competitor displacement as a function of sample concentration, are subsequently run in triplicate to validate hits and to quantitate their potencies, which are expressed as IC50 values.
Negative controls are comprised of 0.5% DMSO, and positive controls are comprised of 0.1 μg/ml 17-AAG.

[1] = tested on: HER2/Neu protein in SK-OV-3 cells; test: Hsp90 Client Protein Degradation Assay; type: cell-based; settings: for IC50: Homo sapiens, 50% degradation of HER2/Neu protein, SK-OV-3 cells, overnight
Procedure: Hsp90 Client Protein Degradation Assay
SK-OV-3 cells were obtained from ATCC (Rockville, Md.) and maintained in McCoy's 5A Media with 10% Fetal Bovine Serum (ATCC) at 37° C. with 5% CO2 in humidified incubators. Cells were plated at 2 ml per well at 100,000 cells/ml in six well dishes. Cells were incubated overnight at 37° C. and given test agent compound the following day in a titrated series. Cell incubation in the presence of compound proceeded overnight at 37° with 5% CO2 in media in the presence of serum. The following day media was aspirated and cells washed on plate with 2 mls of cold D-PBS. 100 ul of 1× Laemli's buffer was added to each well and total protein obtained by scraping the cell pellet and removing to 1.5 ml Eppendorf tube on ice. Cells were further lysed and DNA was fragmented by sonication and cells debris pelleted at 14 K for 3 min at 4° C. 20 ul was loaded per well and fractionated on PAGE gels. Western analyses were performed using abs specifically for the Hsp90 client proteins HER-2 (Santa Cruz Biotech, Santa Cruz, Calif.) and c-raf-1 (Cell Signaling Technology, Danvers, Mass.). Loading per well was controlled by testing for g-actin on Western Blots (Cell Signaling Technology) simultaneous to testing for HER-2 or c-raf-1. Detection was via a secondary antibody conjugated to Horse radish peroxidase (HRP) and enhanced chemiluminescent detection from Supersignal West Pico Detection Kits from Pierce (Rockford, Ill.). Autoradiography was via Kodak X-OMAT film and developing via a Kodak M35 film processor.

[2] = tested on: Hsp90 (luciferase refolding, cancer cell lysate); test: Luciferase Refolding Assay; type: biochemical; settings: inhibition of luciferase refolding by Hsp90
Procedure: Luciferase Refolding Assay
• A. Cancer cells are cultured according to ATCC guidelines. Cell lysates are prepared as follows to be used as source of heat shock proteins: Resuspend the washed cell pellet in 3˜10 packed cell volumes of Buffer A (10 mM HEPES pH 7.9, 1.5 mM MgCl2, 10 mM KCl, 0.5 mM DTT, and 0.2 mM PMSF). Spin at 2000 rpm for 5 minutes in GS-6R (Beckman) centrifuge, 4° C. and resuspend cells in Buffer A up to a final of 3 packed cell volumes (i.e., add ˜2 volumes). Incubate on ice for 10 minutes. Transfer the cells to a Wheaton A Dounce homogenizer and lyse with 10-25 strokes. Stain an aliquot with Trypan Blue and check for >90% lysis under microscope. Spin the homogenized mixture at 3000 rpm for 20 minutes in GS-6R (Beckman) centrifuge, 4° C., to pellet nuclei. To the cytoplasmic fraction (cell lysate), add 1 mM ATP, 14.3 mM creatine phosphate, 71 μg/ml phosphokinase, 3 mM DTT, 113 mM KAc, and 0.7 mM MgAc2. Aliquot into eppendorf tubes and freeze at −80° C. • B. Luciferase Stability Buffer (SB): 25 mM Tris-HCl, pH 7.8; 8 mM MgSO4; 0.1 mM EDTA; 10 mg/ml BSA; 10% Glycerol; 0.25% Triton X-100. Make 2×SB and store at −20° C. • C. Cell Lysate (CL) Buffer: Buffer A containing 1 mM ATP; 14.3 mM creatine phosphate; 71 ug/ml phosphokinase; 3 mM DTT; 113 mM KAc; and 0.7 mM MgAc2. • D. Luciferase: Promega E1701, 14.9 mg/ml=244 μM. Dilute 1:60 in 30 mM Tris-HCl, pH 7.4, 2 mM DTT, and 20% glycerol, resulting in a stock luciferase solution with concentration of 4 μM (250 ng/μl). • E. Luciferase substrate: Promega E1500. Procedure: • 1) Mix luciferase solution 1:1 with 2× SB buffer. Incubate at 42° C. for 8 min to denature. […] Data analysis: Luciferase refolding activity of a cell lysate sample with or without HSP90 inhibitor is represented as the net of luminescence reading from a cell lysate sample subtracting results from negative control (no cell lysate or heat shock proteins). Inhibition effect of a compound is calculated as the percentage of refolding activity relative to samples without any inhibitors in the cell lysate.
The ability of selected compounds of the invention to inhibit luciferase refolding by Hsp90 based on this assay is summarized in Table 14.

[3] = Table 14, inhibition of binding of labeled geldanamycin to Hsp90, read-out: CE IC50
[4] = initial structure activity relationship table, read-out: HSP90 CE IC50
[5] = versus corresponding alcohol (R═H)

SMILES	IC50 (Human cancer cell lines)	IC50 (Hsp90α Protein; [3])	IC50 [1]	IC50 [2]	IC50 (Hsp90α Protein; [4])	more activity than the corresponding alcohol (R═H), CE Hsp90 assay (Hsp90α Protein; [5])	IC50 (Hsp90α Protein)	more activity than the corresponding alcohol (R═H), client protein assay [1, 5]
Nc1nc(F)nc2c1nc(Cc1cc3c(cc1I)OCO3)n2CCCCCOS(N)(=O)=O [Example 4, Sulfamic Acid 5-[6-amino-2-fluoro-8-(6-iodo-benzo[1,3]dioxol-5-ylmethyl)-purin-9-yl]-pentyl ester]	< 5000 nM	< 40 nM	< 3000 nM	< 1000 nM	–	–	–	–
Nc1nc(F)nc2c1nc(Cc1cc3c(cc1I)OCO3)n2CCOS(N)(=O)=O [Example 1, Sulfamic Acid 2-[6-amino-2-fluoro-8-(6-iodo-benzo[1,3]dioxol-5-ylmethyl)-purin-9-yl]-ethyl ester]	< 5000 nM	< 40 nM	< 3000 nM	< 1000 nM	–	–	–	–
Nc1nc(F)nc2c1ncn2C1OC(COS(N)(=O)=O)C(O)C1O (centres unmarked) [FSA, reference compound]	–	–	–	–	700 nM	–	–	–
Nc1nc(F)nc2c1nc(Cc1cc3c(cc1I)OCO3)n2CCOCCCOS(N)(=O)=O [Example 9, Sulfamic Acid 3-{2-[6-amino-2-fluoro-8-(6-iodo-benzo[1,3]dioxol-5-ylmethyl)-purin-9-yl]-ethoxy}-propyl ester]	< 5000 nM	< 40 nM	< 3000 nM	< 1000 nM	–	–	–	–
Nc1nc(F)nc2c1ncn2C1OC(CO)C(O)C1O (centres unmarked) [Fluoroadenosine (FA), Fluoroadenosine, reference compound]	–	–	–	–	–	–	22000 nM	–
Nc1nc(F)nc2[nH]c(Cc3cc4c(cc3I)OCO4)nc12 [Intermediate 5, 2-Fluoro-8-(6-iodo-benzo[1,3]dioxol-5-ylmethyl)-9H-purin-6-ylamine]	< 100000 nM	< 2000 nM	< 50000 nM	< 5000 nM	–	–	–	–

More lines, main results first:

IC50 (Human cancer cell lines)	IC50 (Hsp90α Protein; [3])	IC50 [1]	IC50 [2]	IC50 (Hsp90α Protein; [4])	more activity than the corresponding alcohol (R═H), CE Hsp90 assay (Hsp90α Protein; [5])	SMILES	IC50 (Hsp90α Protein)	more activity than the corresponding alcohol (R═H), client protein assay [1, 5]
< 5000 nM	< 40 nM	< 3000 nM	< 1000 nM	–	–	Nc1nc(F)nc2c1nc(Cc1cc3c(cc1I)OCO3)n2CCCCCCCOS(N)(=O)=O [Example 6, Sulfamic Acid 7-[6-amino-2-fluoro-8-(6-iodo-benzo[1,3]dioxol-5-ylmethyl)-purin-9-yl]-heptyl ester]	–	–
< 5000 nM	< 40 nM	< 3000 nM	< 1000 nM	–	–	Nc1nc(F)nc2c1nc(Cc1cc3c(cc1I)OCO3)n2CCOCCCCOS(N)(=O)=O [Example 10, Sulfamic Acid 4-{2-[6-amino-2-fluoro-8-(6-iodo-benzo[1,3]dioxol-5-ylmethyl)-purin-9-yl]-ethoxy}-butyl ester]	–	–
< 5000 nM	< 40 nM	< 3000 nM	< 1000 nM	–	–	Nc1nc(F)nc2c1nc(Cc1cc3c(cc1I)OCO3)n2CCCOS(N)(=O)=O [Example 2, Sulfamic Acid 3-[6-Amino-2-fluoro-8-(6-iodo-benzo[1,3]dioxol-5-ylmethyl)-purin-9-yl]-propyl ester]	–	–
< 5000 nM	< 40 nM	< 3000 nM	< 1000 nM	–	–	Nc1nc(F)nc2c1nc(Cc1cc3c(cc1I)OCO3)n2CCOCCOS(N)(=O)=O [Example 8, Sulfamic Acid 2-{2-[6-amino-2-fluoro-8-(6-iodo-benzo[1,3]dioxol-5-ylmethyl)-purin-9-yl]-ethoxy}-ethyl ester]	–	–
< 100000 nM	< 2000 nM	< 50000 nM	–	–	–	Nc1nc(F)nc2c1nc(Cc1cc3c(cc1I)OCO3)n2CCCCCCCCOS(N)(=O)=O [Example 7, Sulfamic Acid 8-[6-amino-2-fluoro-8-(6-iodo-benzo[1,3]dioxol-5-ylmethyl)-purin-9-yl]-octyl ester]	–	–
< 5000 nM	< 40 nM	< 3000 nM	< 1000 nM	–	35 fold	Nc1nc(F)nc2c1nc(Cc1cc3c(cc1I)OCO3)n2CCCCCCOS(N)(=O)=O [Example 5, Sulfamic Acid 6-[6-amino-2-fluoro-8-(6-iodo-benzo[1,3]dioxol-5-ylmethyl)-purin-9-yl]-hexyl ester]	–	16 fold
–	–	–	–	> 144000 nM	–	Nc1ncnc2c1ncn2C1OC(COP(=O)(O)O)C(O)C1O (centres unmarked) [AMP, reference compound]	–	–
